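GI50 marks 50% less growth. The concentration for full growth arrest is given as TGI.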
How the values were obtained:
Test in all cases: NCI-60 cell line screen, 384-well format
SW-620 colon = test system: SW-620 colon
SNB-19 CNS = test system: SNB-19 CNS
TK-10 renal = test system: TK-10 renal
EKVX NSCLC = test system: EKVX NSCLC
RPMI-8226 leukemia = test system: RPMI-8226 leukemia
T-47D breast = test system: T-47D breast
K-562 leukemia = test system: K-562 leukemia
HOP-92 NSCLC = test system: HOP-92 NSCLC
MALME-3M melanoma = test system: MALME-3M melanoma
MOLT-4 leukemia = test system: MOLT-4 leukemia
SK-MEL-28 melanoma = test system: SK-MEL-28 melanoma
SK-OV-3 ovarian = test system: SK-OV-3 ovarian
NCI-H23 lung = test system: NCI-H23 lung
DU-145 prostate = test system: DU-145 prostate
SK-MEL-2 melanoma = test system: SK-MEL-2 melanoma
NCI-H522 lung = test system: NCI-H522 lung
KM12 colon = test system: KM12 colon
LOX IMVI melanoma = test system: LOX IMVI melanoma
MDA-MB-231 breast = test system: MDA-MB-231 breast
NCI/ADR-RES ovarian = test system: NCI/ADR-RES ovarian
SF-295 CNS = test system: SF-295 CNS
OVCAR-8 ovarian = test system: OVCAR-8 ovarian
CAKI-1 renal = test system: CAKI-1 renal
U251 glioblastoma = test system: U251 glioblastoma
PC-3 prostate = test system: PC-3 prostate
A498 renal = test system: A498 renal
SR leukemia = test system: SR leukemia
OVCAR-5 ovarian = test system: OVCAR-5 ovarian
HCT-15 colon = test system: HCT-15 colon
HS 578T breast = test system: HS 578T breast
UACC-62 melanoma = test system: UACC-62 melanoma
UO-31 renal = test system: UO-31 renal
HT29 colon = test system: HT29 colon
SNB-75 CNS = test system: SNB-75 CNS
MDA-MB-435 melanoma = test system: MDA-MB-435 melanoma
ACHN renal = test system: ACHN renal
SF-539 CNS = test system: SF-539 CNS
M14 melanoma = test system: M14 melanoma
A549 NSCLC = test system: A549 NSCLC
BT-549 breast = test system: BT-549 breast
SK-MEL-5 melanoma = test system: SK-MEL-5 melanoma
NCI-H322M lung = test system: NCI-H322M lung
HCT-116 colon = test system: HCT-116 colon
OVCAR-4 ovarian = test system: OVCAR-4 ovarian
786-0 renal = test system: 786-0 renal
SN12C renal = test system: SN12C renal
NCI-H226 lung = test system: NCI-H226 lung
MCF7 breast = test system: MCF7 breast
HOP-62 NSCLC = test system: HOP-62 NSCLC
HL-60(TB) leukemia = test system: HL-60(TB) leukemia
MDA-MB-468 breast = test system: MDA-MB-468 breast
HCC-2998 colon = test system: HCC-2998 colon
IGROV1 ovarian = test system: IGROV1 ovarian
UACC-257 melanoma = test system: UACC-257 melanoma
SF-268 CNS = test system: SF-268 CNS
NCI-H460 NSCLC = test system: NCI-H460 NSCLC

## Cc1cnc(-c2ccc(-c3ccc(NC(=O)Nc4c(F)cc(F)cc4F)cc3F)c3c2C(=O)NC3)[nH]1
SW-620 colon
  GI50: 234 nM
  TGI: 1310 nM
SNB-19 CNS
  GI50: 1250 nM
  TGI: 2620 nM
TK-10 renal
  GI50: 1130 nM
  TGI: 2420 nM
EKVX NSCLC
  GI50: 816 nM
  TGI: 3570 nM
RPMI-8226 leukemia
  GI50: 19.1 nM
  TGI: 386 nM
T-47D breast
  GI50: 1600 nM
  TGI: 3000 nM
K-562 leukemia
  GI50: 227 nM
  TGI: 1350 nM
HOP-92 NSCLC
  GI50: 1460 nM
  TGI: 2790 nM
MALME-3M melanoma
  GI50: 52.2 nM
  TGI: 727 nM
MOLT-4 leukemia
  GI50: < 10 nM
SK-MEL-28 melanoma
  GI50: 633 nM
  TGI: 2090 nM
SK-OV-3 ovarian
  GI50: 341 nM
  TGI: 1530 nM
NCI-H23 lung
  GI50: 450 nM
  TGI: 1700 nM
DU-145 prostate
  GI50: 463 nM
  TGI: 1880 nM
SK-MEL-2 melanoma
  GI50: 395 nM
  TGI: 1470 nM
NCI-H522 lung
  GI50: 1140 nM
  TGI: 2400 nM
KM12 colon
  GI50: < 10 nM
  TGI: 1140 nM
LOX IMVI melanoma
  GI50: 345 nM
  TGI: 1690 nM
MDA-MB-231 breast
  GI50: 1030 nM
  TGI: 2350 nM
NCI/ADR-RES ovarian
  GI50: > 100000 nM
  TGI: > 100000 nM
SF-295 CNS
  GI50: 1120 nM
  TGI: 2420 nM
OVCAR-8 ovarian
  GI50: 1090 nM
  TGI: 2340 nM
CAKI-1 renal
  GI50: 1080 nM
  TGI: 2320 nM
U251 glioblastoma
  GI50: 623 nM
  TGI: 1960 nM
PC-3 prostate
  GI50: 1190 nM
  TGI: 2440 nM
A498 renal
  GI50: 165 nM
  TGI: 1160 nM
SR leukemia
  GI50: < 10 nM
OVCAR-5 ovarian
  GI50: 1240 nM
  TGI: 2870 nM
HCT-15 colon
  GI50: 748 nM
  TGI: 13100 nM
HS 578T breast
  GI50: 232 nM
  TGI: 653 nM
UACC-62 melanoma
  GI50: 219 nM
  TGI: 1340 nM
UO-31 renal
  GI50: 161 nM
  TGI: 7350 nM
HT29 colon
  GI50: 1060 nM
  TGI: 2270 nM
SNB-75 CNS
  GI50: 340 nM
  TGI: 897 nM
MDA-MB-435 melanoma
  GI50: 397 nM
  TGI: 1760 nM
ACHN renal
  GI50: 957 nM
  TGI: 4520 nM
SF-539 CNS
  GI50: 305 nM
  TGI: 1870 nM
M14 melanoma
  GI50: 157 nM
  TGI: 1230 nM
A549 NSCLC
  GI50: 616 nM
  TGI: 2150 nM
BT-549 breast
  GI50: 214 nM
  TGI: 981 nM
SK-MEL-5 melanoma
  GI50: 367 nM
  TGI: 1520 nM
NCI-H322M lung
  GI50: 1300 nM
  TGI: 3110 nM
HCT-116 colon
  GI50: 153 nM
  TGI: 1680 nM
OVCAR-4 ovarian
  GI50: 196 nM
  TGI: 452 nM
786-0 renal
  GI50: 575 nM
  TGI: 1890 nM
SN12C renal
  GI50: 462 nM
  TGI: 2000 nM
NCI-H226 lung
  GI50: 1360 nM
  TGI: 2740 nM
MCF7 breast
  GI50: 324 nM
  TGI: 1490 nM
HOP-62 NSCLC
  GI50: 227 nM
  TGI: 1270 nM
HL-60(TB) leukemia
  GI50: < 10 nM
  TGI: 121 nM
MDA-MB-468 breast
  GI50: < 10 nM
  TGI: 434 nM
HCC-2998 colon
  GI50: 1270 nM
  TGI: 2690 nM
IGROV1 ovarian
  GI50: 1300 nM
  TGI: 6510 nM
UACC-257 melanoma
  GI50: 856 nM
  TGI: 2140 nM
SF-268 CNS
  GI50: 277 nM
  TGI: 1500 nM
NCI-H460 NSCLC
  GI50: < 10 nM
  TGI: 201 nM
